Data: patent US12012408B2, “Purine compounds and method for the treatment of cancer” (THE ROYAL INSTITUTION FOR THE ADVANCEMENT OF …, priority 2018, dated 2024)

What was measured:
Aurora kinase A = target: T1, Aurora kinase A (Homo sapiens, UniProt O14965); test: SelectScreen kinase profiling (Invitrogen), high-throughput screening against a panel of kinases; type: biochemical; conditions: 100 nM screening concentration
T1 sequence (O14965 1-403): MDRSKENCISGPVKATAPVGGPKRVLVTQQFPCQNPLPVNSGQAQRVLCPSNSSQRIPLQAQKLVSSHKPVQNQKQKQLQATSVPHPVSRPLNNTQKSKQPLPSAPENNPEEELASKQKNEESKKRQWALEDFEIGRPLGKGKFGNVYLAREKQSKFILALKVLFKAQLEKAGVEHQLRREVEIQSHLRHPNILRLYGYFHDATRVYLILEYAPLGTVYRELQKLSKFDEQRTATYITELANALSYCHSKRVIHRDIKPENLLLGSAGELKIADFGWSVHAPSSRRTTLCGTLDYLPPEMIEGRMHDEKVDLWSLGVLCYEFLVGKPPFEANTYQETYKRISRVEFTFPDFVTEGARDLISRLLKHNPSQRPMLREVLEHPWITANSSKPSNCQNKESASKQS
Protocol: (§1) FIG. S3A represents the SelectScreen kinase profiling (Invitrogen) results obtained against a panel of kinases for SLLN-15 at 100 nM.
(§2) To further evaluate cellular Aurora kinase inhibitory activity of SLLN-15, western blot analysis was carried out in both MDA-MB-231 and BT-20 cell lines. […] To gain further insight into the mechanism underlying the regulation of Aurora A and B by SLLN-15, we next examined whether Aurora A and B were degraded via the proteasome pathway.

Janus kinase 2 (JAK2) = Janus kinase 2 (JAK2) (Homo sapiens, UniProt O60674); test: as above; type: biochemical; conditions: 100 nM screening concentration
Janus kinase 2 (JAK2), sequence (O60674 whole entry): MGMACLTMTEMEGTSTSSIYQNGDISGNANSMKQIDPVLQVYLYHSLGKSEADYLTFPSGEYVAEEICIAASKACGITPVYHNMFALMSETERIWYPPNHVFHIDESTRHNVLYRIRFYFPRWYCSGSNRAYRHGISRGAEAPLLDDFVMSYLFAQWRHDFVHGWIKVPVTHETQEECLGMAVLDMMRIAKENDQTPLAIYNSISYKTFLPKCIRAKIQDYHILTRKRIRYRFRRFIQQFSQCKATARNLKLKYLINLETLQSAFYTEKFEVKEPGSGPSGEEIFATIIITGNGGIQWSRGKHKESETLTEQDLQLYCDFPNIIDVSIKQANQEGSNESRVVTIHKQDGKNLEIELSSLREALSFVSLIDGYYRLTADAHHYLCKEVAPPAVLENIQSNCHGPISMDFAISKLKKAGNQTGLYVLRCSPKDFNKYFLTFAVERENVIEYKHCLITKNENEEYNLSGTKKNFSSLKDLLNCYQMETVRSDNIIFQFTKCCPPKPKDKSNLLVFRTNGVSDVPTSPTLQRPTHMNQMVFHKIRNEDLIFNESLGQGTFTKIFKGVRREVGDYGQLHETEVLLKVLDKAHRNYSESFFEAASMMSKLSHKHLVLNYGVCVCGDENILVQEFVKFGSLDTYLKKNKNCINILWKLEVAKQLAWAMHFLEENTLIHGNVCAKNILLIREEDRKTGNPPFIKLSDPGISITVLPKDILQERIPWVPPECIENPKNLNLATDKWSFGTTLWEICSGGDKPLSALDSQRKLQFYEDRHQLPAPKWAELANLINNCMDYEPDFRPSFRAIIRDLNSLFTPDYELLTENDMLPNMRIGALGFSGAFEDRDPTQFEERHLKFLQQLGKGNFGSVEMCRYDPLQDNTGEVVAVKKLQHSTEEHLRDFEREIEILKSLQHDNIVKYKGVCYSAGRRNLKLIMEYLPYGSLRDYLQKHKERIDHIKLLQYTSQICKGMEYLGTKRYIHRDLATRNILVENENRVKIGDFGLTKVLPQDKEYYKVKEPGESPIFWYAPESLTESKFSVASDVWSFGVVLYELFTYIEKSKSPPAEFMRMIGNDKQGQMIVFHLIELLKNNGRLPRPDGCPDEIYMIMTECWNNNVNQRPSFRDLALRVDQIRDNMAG
Protocol: as §1, §2

[1] = system: breast cancer cell lines MDA-MB-231, BT20, MDA-MD468, 4T1, MCF-7, SKBR3; test: Colony formation assay (long-term cell viability); type: cell-based; conditions: MDA-MB-231, BT20, MDA-MD468, 4T1, MCF-7 (ER+, PR+), SKBR3 (Her2+); FIG. 1B
Protocol: The long-term effects of SLLN-15 on tumor cell growth were assessed using the colony formation assay. Cells were trypsinized and plated in triplicate wells in 12-well plate (500 cells/well). After six hours of incubation, cells were treated with the indicated concentrations of SLLN-15 or DMSO. 7 days after the cells plated and treated, they were washed and stained with a mixture of 0.05% w/v crystal violet and 6% v/v glutaraldehyde, and the colonies >100 μm in diameter were counted using a colony counter (Oxford Optronix Gelcount, Inc., Milton Park, Abingdon, UK).

[2] = system: cleaved-PARP, cleaved-caspase 3, Bcl-2 in MDA-MB-231 and BT-20 cells; test: Western blot of indicators of apoptosis; type: cell-based
Protocol: (§3) Sub-confluent cells were washed with PBS, lysed in RIPA buffer (50 mM Tris-HCl at pH7.5, 150 mM sodium chloride, 1% tritonX-100, 0.1% SDS, 2 mM EDTA and 25 mM sodium fluoride) supplemented with 1 mM PMSF and protease inhibitor cocktail (Roche) for 10 min on ice and centrifuged (13,000 rpm at 4° C. for 20 min) to separate cell lysate. Cell lysate (50 μg protein, as measured by the Bradford protein assay) was then added with SDS sample buffer (Tris at pH 6.8, 20% glycerol, 5% SDS, bromophenol blue and β-mercaptoethanol) and boiled for 5 min. Samples were then resolved through 13% SDS-PAGE gels, transferred to nitrocellulose membrane, blotted with specific first antibodies at different dilution in cold room overnight, and then amplified with horseradish peroxidase-conjugated secondary antibodies for 1 hour in room temperature and enhanced by chemiluminescence detection system.
Considering apoptosis is the major form of cell death induced by chemotherapeutic agent, we seek to identify whether the anticancer effect of SLLN-15 was mediated via apoptosis in breast cancer cells.

[3] = system: MDA-MB-231 and BT-20 cells; test: Propidium iodide staining and flow cytometry of DNA content; type: cell-based; conditions: treatment for 24 hours; FIG. 6C
Protocol: Cells were seeded into six-well plates and treated with the indicated concentration of SLLN-15 for 24 hours. After harvesting, cells were fixed in 80% methanol at −20° C. overnight. The fixed cells were washed twice with cold phosphate-buffered saline (PBS), incubated for 1 hour with 0.1% Triton X-100 and 0.5 μg/ml RNase A, and then stained with propidium iodide (PI) (Sigma) at a final concentration of 10 μg/ml in the dark at 4° C. until analysis. The fluorescent signal was detected through the FL-2 channel using FACSCalibur flow cytometry (Becton Dickson), and the proportion of DNA in various phases was analyzed using FCS Express version 3.0 (De novo Software, Glendale, California, USA)

[4] = system: MDA-MB-231 and BT-20 cells; test: BrdU labeling cell proliferation assay; type: cell-based; conditions: FIG. 6D
Protocol: The proliferation effects of SLLN-15 were assessed using the bromodeoxyuridine (BrdU) Cell proliferation Assay Kit (Biovision). Cells were seeded at a density of 5000 cells/well in a 96-well plate and treated with SLLN-15 or rapamycin (Cayman chemical) as indicated concentration or DMSO for 24 hours. The plates were read on FLUOstar OPTIMA microplate reader (BMG Labtech, Ortenberg, Germany) at 450 nm. Assays were performed in triplicate on three independent experiments.

[5] = system: Aurora A, Aurora B, Aurora C in MDA-MB-231 and BT-20 cells; test: Western blot of cellular Aurora kinase phosphorylation and expression; type: cell-based
Protocol: as §3, §2

[6] = system: breast cancer stem-like cells (BCSCs), ALDHhigh and CD24low/CD44high; test: Anti-stemness activity in breast cancer stem-like cells; type: cell-based
Description: (§4) Breast cancer stem-like cells (BCSCs), heterogeneously subsisting as CD24low/CD44high and ALDHhigh subpopulations, are enriched in aggressive breast cancer subtypes and believed to be responsible for driving metastatic colonization. Despite evidence of a clinical association between BCSC and poor prognosis, effective therapeutic means to target this cell population is lacking. We identified SLLN-15 as a compound with selective anti-sternness activity across a panel of cell lines expressing ALDHhigh and CD24low/CD44high markers, including MDA-MB-231, SUM-149PT, BT-20, SKBR3, 4T1 and several anaplastic thyroid cell lines. […] In summary, our data foster that targeting regulatory networks driving sternness represent important therapeutic targets for treating metastatic breast disease.

[7] = system: MDA-MB-231-M2 or 4T1 tumors; test: In vivo anti-metastatic activity in tumor-bearing mice
Description: as §4

## c1nc2nc(Nc3ccc(N4CC[Se]CC4)cc3)nc(N[C@H]3CC[Se]C3)c2[nH]1 [SLLN-15]
Aurora kinase A
  inhibition of Aurora kinase A: 91%
Janus kinase 2 (JAK2)
  inhibition of Janus kinase 2 (JAK2): 85%
[1]
  colony formation abilities: equally inhibit the colony formation abilities
[2]; FIG. 6B
  indicators of apoptosis: upregulation of cleaved-PARP and cleaved-caspase 3, downregulation of Bcl-2: not SLLN-15 treated cells
[2]; up to 48 hours post-exposure, breast cancer cells
  apoptosis: no significant apoptosis was observed
[3]
  apoptosis (sub-G1 phase): no obvious apoptosis
  cells arrested in G2/M phase and polyploidy (>4N): significantly higher percentage
[4]
  anti-proliferation potency compared to rapamycin: more potent anti-proliferation agents
[4]; dose-dependent
  BrdU-positive cells: lower percentage of BrdU-positive cells
[5]; 1 μM, FIG. 7A
  phosphorylation of Aurora A at Thr288, Aurora B at Thr232, Aurora C at Thr198: strongly inhibited phosphorylation of both Aurora A at Thr288 and B at Thr232 but not Aurora C at Thr198
[5]; BT-20 cells, 6 hours post-treatment, FIG. 7C
  expression of Aurora A over time: downregulated the expression of Aurora A at earlier time points
[5]; dose-dependent, FIG. 7A
  Aurora A and Aurora B expression: decreased both Aurora A and Aurora B expression
[6]; FIGS. 8A and 8B
  centrosomes clustering: interferes with centrosomes clustering
[6]; MDA-MB-231, sorted BCSC subpopulation, concurrent inhibition of focal adhesion kinase signaling
  cell locomotion: induced loss of cell locomotion
[6]; SLLN-15-treated cells
  BCSC-marker expression, tumorspheres formation, STAT3 activation, mitotic spindle assembly: reduced BCSC-marker expression, tumorspheres formation, STAT3 activation and defective mitotic spindle assembly
[7]; mice bearing MDA-MB-231-M2 or 4T1 tumors, administered intraperitoneally
  anti-metastatic activity: significant anti-metastatic activity
[7]; pretreatment ex vivo prior to mouse implantation
  MDA-MB-231-M2 progression to metastasis: significantly attenuated
